This is an account of results in patent US4148907A, “Stereoisomers of 1-(1'benzyl-2'pyrryl)-2-di-sec.-butylaminoethanol and pharmaceutical compositions comprising same” (Etablissement Viridis, priority 1976, dated 1979).

Data set [1] relates to mice. The experiment in a line: Hot plate test on mice (analgesic activity, ED50). It counts as in vivo. The settings on record: Mus musculus, sc. How it is done:
(§1) [α]436^20 (in methanol c= 2%): -48° C.±3° C. The analgesic activity (ED50) of isomers A and B has been determined via the hot plate test on mice (N/.B Eddy et Coll. J. Pharmacol. 98, 121, 1950) and via the "tail flick" test on rats (D'Amour and Smith; J. Pharmacol. 1941, 72, 74). The resulting values are set forth in the following Table and compared with the values given under identical conditions for VIMINOLO and the "R2 " Compound referred to hereinabove (Pharmacological Research Communications 8, 111 (1976)).
For orientation: In hot-plate and tail-flick tests a longer latency is read as antinociception.

Data set [2] in a line: Acute toxicity (LD50), method of Litchfield and Wilcoxson. The settings on record: in vivo, ip. An excerpt:
The acute toxicity values (LD50) have been determined by the method of Litchfield and Wilcoxson (J. Pharmacol. 1949, 96, 99) both for the new compounds of this invention and for VIMINOLO and the "R2 " Compound.

Data set [3] in a line: Therapeutic index (LD50/ED50 tail flick). It counts as in vivo. As to conditions: ratio of LD50/ED50, ED50 from the tail flick test. An excerpt: The superiority of new Compounds A and B is also evident from the therapeutic indexes which have been calculated as a ratio of LD50 /ED50' taking as the ED50 value that which is obtained by the tail flick test.
Data set [4] deals with rats. The experiment in a line: "tail flick" test on rats (analgesic activity, ED50). It is filed as in vivo. The settings on record: Rattus norvegicus, sc. The method, then:
as §1

For data set [5] the following is noted: compared with other isomers, racemic compound or the disclosed class; cited from earlier work.
The subject of data set [6] is rats. The settings on record: comparison values given under identical conditions (Pharmacological Research Communications 8, 111 (1976)); cited from earlier work.
Data set [7] is described as follows: Analgesic activity, comparison in words (hot plate and tail flick data). It is filed as in vivo. The settings on record: compared with VIMINOLO
How it is done:
as §1

The test system of data set [8] is mice. The settings on record: comparison values given under identical conditions (Pharmacological Research Communications 8, 111 (1976)); cited from earlier work.

By ED50 is commonly meant the midpoint of the dose-response relation. Higher therefore signals weaker potency. One may read the LD50 as the dose expected to kill half of the subjects tested. A higher LD50 goes with a less toxic substance.

Take `CC[C@@H](C)N(CC(O)c1cccn1Cc1ccccc1C(F)(F)F)[C@H](C)CC` (single isomer, unassigned) [Isomer B]: the 50% effective dose (ED50) in the data set with mice [1] turned out to be 0.6 mg/kg; in the data set with rats [4], 0.38 mg/kg. The compound also came in with a median lethal dose (LD50) in data set [2] of 358 mg/kg. In addition, the “T.I. (therapeutic index)” value in data set [3] is on record as 942.

In data set [2], `CCC(C)N(CC(O)c1cccn1Cc1ccccc1Cl)C(C)CC` (stereo not drawn) [VIMINOLO, 1-[1'(o-chlorobenzyl)-2'-pyrryl]-2-di-sec.-butylaminoethanol] registered an LD50 of 167 mg/kg. Besides, the “analgesic activity (prior patents)” value in data set [5] was “most active compound within the disclosed class of aminoethanols”. In the data set with rats [6], the “ED50 Tail Flick s.c.” value is given as 12.5 mg/kg. Further, the “T.I. (therapeutic index)” value in data set [3] is reported as 13.36.

Consider `CC[C@@H](C)N(CC(O)c1cccn1Cc1ccccc1F)[C@H](C)CC` (single isomer, unassigned) [Isomer A], for which the 50% effective dose (ED50) was determined as 0.65 mg/kg in the data set with mice [1] and 0.44 mg/kg with rats [4]. Besides, in data set [2], the LD50 stood at 384 mg/kg. Further, the “T.I. (therapeutic index)” value in data set [3] amounted to 872.

The compound `CCC(C)N(CC(O)c1cccn1Cc1ccccc1Cl)C(C)CC` (single isomer, unassigned) ["R2 " Compound] gave an LD50 in data set [2] of 230 mg/kg. Moreover, in data set [7], the “analgesic activity relative to VIMINOLO” value is listed as “surprisingly more active than VIMINOLO”. Moreover, in data set [5], the “analgesic activity (prior patents)” value was “much more active than the other isomers and also, more active than the corresponding racemic compound "VIMINOLO"”. Besides, the “ED50 Tail Flick s.c.” value with rats [6] is 0.71 mg/kg. Also, the “T.I. (therapeutic index)” value in data set [3] is 324. The “ED50 hot plate s.c” value in the data set with mice [8] is 1.15 mg/kg.
